Experimental data reported in patent US10792373B2, “Drug delivery polymers and uses thereof” (priority 2016, dated 2020).

Key:
[1] = test system: Eμ-Myc p19Arf−/− lymphoma cells; experiment: RNAi signature assay (GFP-tagged shRNAs, flow cytometry); type: cell-based, murine; details: drug dosed to kill 80-90% of cells at 48 h; GFP positivity at 72 h
Description: RNAi signatures were performed as described previously^2-4. Briefly, Eμ-Myc p19^Arf−/− lymphoma cells were infected at about 30% with GFP-tagged shRNAs. The cells were then treated with drug to kill 80-90% of cells as judged by propidium iodide exclusion via flow cytometry at 48 h. At 72 h, GFP positivity was assessed via flow cytometry. Constrained linear regression was performed in Stata using least-squares fit with individual drug treatments as the predictor variables and the combination signatures as the response variables. The linear regression was constrained such that the sum of the predictor variables had to equal one and none could be negative.
(§1) Eμ-Myc p19Arf−/− lymphoma cells were infected at about 30% with GFP-tagged shRNAs. The cells were then treated with drug to kill 80-90% of cells as judged by propidium iodide exclusion via flow cytometry at 48 h. At 72 h GFP positivity was assessed via flow cytometry. Using the RNAi signature approach, the free drug, prodrug, single-drug-conjugated BASPs, and multi-drug conjugated BASPs illustrated in FIGS. 9A-9C were characterized. […] Next, the RNAi signatures for each of the free drugs and their corresponding prodrug monomers and BASPs were plotted (FIG. 20E) using principal component analysis (PCA). PCA is a means of representing the variance in a multi-dimensional dataset in fewer dimensions. […] One hypothesis that may explain the observed difference between the cisplatin and oxaliplatin prodrug mechanisms is related to the ligand lability of these species. Inside the cell, where the concentration of chloride ions is much lower than in the extracellular milieu (2 to 30 mM for the former compared to ˜100 mM for the latter), the weakly bound chloride ligands of free cisplatin are replaced with aquo ligands. This diaquo species induces cytotoxic inter- or intra-strand DNA cross-links. […] Additionally, utilizing a CisPt-DNA adduct specific antibody, the genomic DNA isolated from murine lymphoma cells after 8 h of drug treatment was analyzed. […]

Top2A = biological target: T1, Top2A (Mus musculus, UniProt Q01320); experiment: GFP competition assay with validated Top2A shRNA; type: cell-based, murine
T1 construct: Eμ-Myc p19Arf−/− lymphoma cells were infected at about 30% with GFP-tagged shRNAs; endogenous in cells; host or cells: Eμ-Myc p19Arf-/- murine lymphoma cells
T1 sequence (Q01320 whole entry): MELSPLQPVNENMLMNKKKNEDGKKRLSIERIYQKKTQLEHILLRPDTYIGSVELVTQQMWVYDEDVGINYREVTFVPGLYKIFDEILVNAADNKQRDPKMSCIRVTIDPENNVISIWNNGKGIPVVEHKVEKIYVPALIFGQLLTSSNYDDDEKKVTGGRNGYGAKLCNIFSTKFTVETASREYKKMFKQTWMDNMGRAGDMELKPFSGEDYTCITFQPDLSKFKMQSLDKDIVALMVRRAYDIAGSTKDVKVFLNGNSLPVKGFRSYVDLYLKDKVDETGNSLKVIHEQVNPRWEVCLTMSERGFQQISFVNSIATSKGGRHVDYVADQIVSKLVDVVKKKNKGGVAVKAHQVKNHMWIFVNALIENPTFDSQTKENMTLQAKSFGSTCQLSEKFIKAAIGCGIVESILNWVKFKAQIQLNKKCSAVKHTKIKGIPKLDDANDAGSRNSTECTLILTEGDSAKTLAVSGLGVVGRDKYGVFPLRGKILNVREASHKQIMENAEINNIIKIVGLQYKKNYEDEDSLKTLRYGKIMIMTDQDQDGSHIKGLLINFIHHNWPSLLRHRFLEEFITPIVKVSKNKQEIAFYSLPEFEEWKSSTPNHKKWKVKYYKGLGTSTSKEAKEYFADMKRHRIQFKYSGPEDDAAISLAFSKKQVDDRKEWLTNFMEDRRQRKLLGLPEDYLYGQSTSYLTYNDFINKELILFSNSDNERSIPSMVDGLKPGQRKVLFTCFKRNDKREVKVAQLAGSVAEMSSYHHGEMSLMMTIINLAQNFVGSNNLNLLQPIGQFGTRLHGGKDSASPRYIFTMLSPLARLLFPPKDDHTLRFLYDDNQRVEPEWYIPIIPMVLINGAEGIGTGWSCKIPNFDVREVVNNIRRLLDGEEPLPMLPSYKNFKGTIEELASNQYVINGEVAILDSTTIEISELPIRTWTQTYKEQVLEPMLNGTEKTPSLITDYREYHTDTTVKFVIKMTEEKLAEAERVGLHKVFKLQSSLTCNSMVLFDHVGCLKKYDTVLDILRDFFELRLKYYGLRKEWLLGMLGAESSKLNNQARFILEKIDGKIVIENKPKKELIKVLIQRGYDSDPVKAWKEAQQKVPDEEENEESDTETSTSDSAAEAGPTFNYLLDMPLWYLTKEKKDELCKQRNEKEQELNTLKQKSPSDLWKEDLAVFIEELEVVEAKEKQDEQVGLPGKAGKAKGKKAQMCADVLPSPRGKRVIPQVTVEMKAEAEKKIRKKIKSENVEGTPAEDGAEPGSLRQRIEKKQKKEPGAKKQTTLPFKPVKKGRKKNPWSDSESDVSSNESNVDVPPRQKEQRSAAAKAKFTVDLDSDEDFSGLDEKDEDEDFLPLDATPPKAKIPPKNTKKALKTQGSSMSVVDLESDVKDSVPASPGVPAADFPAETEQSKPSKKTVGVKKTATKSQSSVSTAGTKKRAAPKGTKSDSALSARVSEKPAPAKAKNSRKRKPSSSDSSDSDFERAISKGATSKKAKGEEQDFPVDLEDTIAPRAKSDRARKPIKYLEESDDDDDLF
Description: (§2) Eμ-Myc p19Arf−/− lymphoma cells were infected at about 30% with GFP-tagged shRNAs. The cells were then treated with drug to kill 80-90% of cells as judged by propidium iodide exclusion via flow cytometry at 48 h. At 72 h GFP positivity was assessed via flow cytometry. Using the RNAi signature approach, the free drug, prodrug, single-drug-conjugated BASPs, and multi-drug conjugated BASPs illustrated in FIGS. 9A-9C were characterized. […] Next, the RNAi signatures for each of the free drugs and their corresponding prodrug monomers and BASPs were plotted (FIG. 20E) using principal component analysis (PCA). PCA is a means of representing the variance in a multi-dimensional dataset in fewer dimensions. […] Inside the cell, where the concentration of chloride ions is much lower than in the extracellular milieu (2 to 30 mM for the former compared to ˜100 mM for the latter), the weakly bound chloride ligands of free cisplatin are replaced with aquo ligands. This diaquo species induces cytotoxic inter- or intra-strand DNA cross-links.

Top1 = biological target: T2, Top1 (Mus musculus, UniProt Q04750); experiment: GFP competition assay with validated Top1 shRNA; type: cell-based, murine
T2 construct: Eμ-Myc p19Arf−/− lymphoma cells were infected at about 30% with GFP-tagged shRNAs; endogenous in cells; host or cells: Eμ-Myc p19Arf-/- murine lymphoma cells
T2 sequence (Q04750 1-767): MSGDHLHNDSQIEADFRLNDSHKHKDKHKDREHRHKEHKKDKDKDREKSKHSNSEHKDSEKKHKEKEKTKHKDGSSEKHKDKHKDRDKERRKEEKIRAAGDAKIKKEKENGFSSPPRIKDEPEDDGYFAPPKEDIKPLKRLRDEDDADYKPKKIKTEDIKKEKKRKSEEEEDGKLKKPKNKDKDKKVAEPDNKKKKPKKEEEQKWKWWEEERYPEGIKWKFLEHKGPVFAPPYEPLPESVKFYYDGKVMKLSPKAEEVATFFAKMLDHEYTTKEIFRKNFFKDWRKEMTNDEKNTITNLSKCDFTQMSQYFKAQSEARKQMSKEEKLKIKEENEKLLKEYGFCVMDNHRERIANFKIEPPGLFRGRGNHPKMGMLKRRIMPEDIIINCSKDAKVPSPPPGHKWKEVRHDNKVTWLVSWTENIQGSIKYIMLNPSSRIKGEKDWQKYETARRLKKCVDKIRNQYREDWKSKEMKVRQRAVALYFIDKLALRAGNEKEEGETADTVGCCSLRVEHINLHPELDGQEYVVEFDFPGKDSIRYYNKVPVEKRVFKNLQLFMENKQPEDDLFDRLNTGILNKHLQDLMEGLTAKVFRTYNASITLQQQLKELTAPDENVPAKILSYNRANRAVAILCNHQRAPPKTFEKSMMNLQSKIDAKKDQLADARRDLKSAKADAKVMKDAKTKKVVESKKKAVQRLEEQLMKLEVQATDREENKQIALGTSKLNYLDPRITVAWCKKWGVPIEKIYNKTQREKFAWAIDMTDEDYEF
Description: as §2

[2] = test system: genomic DNA isolated from murine lymphoma cells; experiment: Cisplatin-DNA adduct detection with a CisPt-DNA adduct specific antibody; type: cell-based; details: after 8 h of drug treatment
Description: as §1

Row | SMILES | RNAi signature classification (mechanism of action) [1] | response of cells harboring the Top2A shRNA (Top2A) | response of cells with knockdown of Top1 (Top1) | Cisplatin-DNA adducts [2]
1 | CC[C@@]1(O)C(=O)OCc2c1cc1n(c2=O)Cc2cc3ccccc3nc2-1 [CPT, camptothecin] | Topoisomerase I (Top1) poisons | sensitivity | resistance | –
2 | COc1cccc2c1C(=O)c1c(O)c3c(c(O)c1C2=O)C[C@@](O)(C(=O)CO)C[C@@H]3O[C@H]1C[C@H](N)[C@H](O)[C@H](C)O1 [DOX, doxorubicin] | Topoisomerase II (Top2) poison | resistant | sensitivity | –
3 | O=C1[O][Pt]2([NH][C@@H]3CCCC[C@H]3[NH]2)[O]C1=O [OxPt, oxaliplatin] | transcription/translation inhibitors | – | – | –
4 | N.N.[Cl][Pt][Cl] [CisPt, cisplatin] | – | – | – | detected
